One data set relates to JNK1. Kind of data set: JNK1 activation under ER stress. It counts as cell-based, human. As to conditions: 2.5 μM, 2 hour preincubation, Tm 4 μg/ml 1.5 hrs. On the procedure:
HT1080 cells were exposed to DMSO vehicle (lane 1), irestatin 9389 (2.5 μM; lane 2) for 16 hours or Tm (5 μg/ml; lane 3) for 8 hours. Following treatments, cells were harvested, lysed, and analyzed by immunoblotting using anti-Grp78 antibody (top) or anti-actin (bottom) as a loading control. B. Effect of irestatin 9389 on IRE1α expression and kinase function. HT1080 cells were preincubated for 16 hours with either vehicle or irestatin 9389 (2.5 μM), followed by addition of Tm (5 μg/ml) for the indicated times. Cell lysates were analyzed by Western immunoblotting using anti-IRE1α (bottom) or anti-phospho-IRE1α antibodies (top). C. Effect of irestatins on JNK1 activation under ER stress. HT1080 cells were untreated (lane 1), exposed to TNF-α (10 ng/ml, 10 min), or Tm (4 μg/ml, 1.5 hrs) (lanes 3-8) following a 2 hour preincubation in the presence of vehicle (lane 3) or the indicated irestatins (2.5 μM; lanes 4-8). Lysates were analyzed by Western blot using antisera specific for phospho-JNK1 (top) or total JNK1 (bottom). […] F. Quantification of RNA cleavage kinetics. […] Samples were analyzed as in (E).
Activation of IRE1α is preceded by ATP binding and autophosphorylation, and the IRE1α kinase is required for endonuclease activity. […] Cells were then harvested at regular intervals, and activation of the IRE1α kinase was assessed by immunoblotting using anti-phospho-IRE1α antisera.

In the next data set the test system is HT1080 tumor xenografts. Kind of data set: Immunohistochemical analysis of tumor xenografts. The format is in vivo, mouse. The following applies: three doses, 50 mg/kg. On the procedure: Tumor-bearing mice were injected i.p. with hypoxyprobe (50 mg/kg) 1 hour prior to sacrifice. Mice were euthanised under anesthesia by cervical dislocation, and tumors were surgically resected, embedded in OCT compound (Sakura Tissue Tek), and frozen at −80° C. Tumors were sectioned at 8 μm, fixed in 4% paraformaldehyde, and blocked in PBS-4% BSA. Tissue sections were incubated overnight in block solution containing antisera specific for hypoxyprobe (1:250) and cleaved caspase-3 (1:400). Slides were washed three times with block solution and incubated for 2 hours at room temperature with anti-mouse Alexa 488 or anti-rabbit Alexa 594 (Invitrogen, San Diego, Calif.). Slides were washed five times in block solution, and coverslips mounted with Permount supplemented with DAPI.
Immunohistochemical analysis of tumor xenografts. […] D. Quantification of tumor immunohistochemistry. At least 8 randomly chosen fields (>300 cells/field) per tumor were scored for pimonidazole and cleaved caspase-3 staining. A minimum of 3 tumors (250-300 mm^3 at harvest) were analyzed per treatment group. […]
We further examined tumors from control and irestatin-treated mice for differences in cell survival. […] The increase in apoptosis was most pronounced in hypoxic tissue regions of tumors, as determined by co-immunoreactivity for pimonidazole adducts (FIG. 14C, bottom panel). […]

Data set [1] can be described thus: Toxicity of increasing doses in SCID mice. It counts as in vivo. The method, then:
Female 4-6 week-old SCID (B6.CB17) mice supplied by Stanford University Animal Facility were housed in the same facility (American Association of Laboratory Animal Care-approved) with 12 hour light cycles. Food and water were provided ad libitum. All experiments were approved by the institutional care and use committee. The potential toxicities of irestatin 9389 were examined in SCID mice injected i.p. once daily over 4 consecutive days with increasing doses of irestatin 9389 or vehicle control. […] For xenografts, 2×10^6 HT1080 fibrosarcoma cells were resuspended in 50-75 μl PBS and injected s.c. in the dorsal flanks of host mice. When the implanted tumors reached a mean volume of ˜150 mm^3, mice were randomly assigned into different treatment groups. Mice were dosed by i.p. bolus injection with either vehicle (50% DMSO, 20% cremophor EL, 30% ethanol) or irestatin 9389 (50 mg/kg). Tumors (6-8 per group) were measured every 2-4 days with calipers. Tumor volume was calculated using the formula [(W^2×L) 0.52] where W=width and L=length.

The test system of data set [2] is PANC1 pancreatic adenocarcinoma cells. Kind of data set: PANC1 tumor growth in nude mice. It counts as in vivo, mouse. As to conditions: 60 mg/kg bolus every 48 hours, 5 doses, 5-7 tumors per group. On the procedure: Dose: 60 mg/kg ip bolus injection every 48 hours. 5 total doses. 5-7 tumors per group. PANC1 pancreatic adenocarcinoma cell line.
PANC1 pancreatic adenocarcinoma cells were implanted subcutaneously into nude mice. Mice were then given a bolus injection of one of the inventive irestatins (1401, 9337, 3611 or 9389) at a dose of 60 mg/kg every 48 hours for a total of 5 doses, with 5-7 tumors being treated per group.

Turning to `Cc1csc(NC(=O)CSc2nc3c(c(C(F)(F)F)c2C#N)CCC3)n1` [Compound 9389], the “phosphorylation of JNK1 during Tm-induced ER stress” value in the data set on JNK1 was “failed to block the phosphorylation of JNK1”. Besides, in the data set with HT1080 tumor xenografts, the “cleaved caspase-3 in tumors relative to vehicle” value is recorded as “significant increase”. Moreover, the “toxicity of dosing regimen” value in data set [1] (SCID mice, i.p., 50-60 mg/kg) is recorded as “without apparent toxicity”. Besides, the “dosing regimen of 50-60 mg/kg relative to LD50” value in data set [1] (female, SCID (B6.CB17), mouse, in vivo, 4 days) is 75 % of the LD50 value. In addition, the tumor growth entry in data set [2] is “significant tumor growth was observed in untreated mice, but not in mice treated with the irestatins”.

Source of the values: patent US20090291857A1, “METHODS TO IDENTIFY INHIBITORS OF THE UNFOLDED PROTEIN RESPONSE” (THE BOARD OF TRUSTEES OF THE LELAND STANFORD JUNIOR …, priority 2006, published 2009).
